The data set can be described thus: activity coefficient (dimensionless); of the first substance listed, at infinite dilution; xn = mol fraction of the nth substance listed. The following applies: 101 kPa, Liquid, Chromatography, x1 = 0.

The values that follow come from the NIST ThermoML archive (doi:10.1016/j.jct.2009.06.011).

± gives the expanded uncertainty stated by the source.

As for `C#CCCC` [1-pentyne] + CCCC[n+]1ccc(C)cc1.O=S(=O)([N-]S(=O)(=O)C(F)(F)F)C(F)(F)F, the activity coefficient is, setting by setting: (298.15 K) 1.79 ± 0.12; (308.15 K) 1.82 ± 0.12; (318.15 K) 1.84 ± 0.12; (328.15 K) 1.87 ± 0.13; (338.15 K) 1.89 ± 0.13; (348.15 K) 1.91 ± 0.13. For the same molecule, the activity coefficient (358.15 K) was found to be 1.93 ± 0.13 and the activity coefficient (368.15 K) stood at 1.95 ± 0.13.
For `Cc1cccc(C)c1` [1,3-dimethylbenzene] + CCCC[n+]1ccc(C)cc1.O=S(=O)([N-]S(=O)(=O)C(F)(F)F)C(F)(F)F, the activity coefficient came to 1.35 ± 0.09 (318.15 K); 1.38 ± 0.09 (328.15 K); 1.42 ± 0.09 (338.15 K); 1.45 ± 0.1 (348.15 K); 1.48 ± 0.1 (358.15 K); 1.51 ± 0.1 (368.15 K).
For `CO` [methanol] + CCCC[n+]1ccc(C)cc1.O=S(=O)([N-]S(=O)(=O)C(F)(F)F)C(F)(F)F, the activity coefficient (298.15 K) came out at 1.53 ± 0.1; the activity coefficient (308.15 K) was found to be 1.39 ± 0.09; the activity coefficient (318.15 K) turned out to be 1.27 ± 0.08; the activity coefficient (328.15 K) amounted to 1.17 ± 0.07; the activity coefficient (338.15 K) is 1.08 ± 0.07; the activity coefficient (348.15 K) came to 1 ± 0.06. For the same molecule, the activity coefficient (358.15 K) stood at 0.935 ± 0.059 and the activity coefficient (368.15 K) came to 0.876 ± 0.056.
Consider `Cc1ccccc1C` [1,2-dimethylbenzene] + CCCC[n+]1ccc(C)cc1.O=S(=O)([N-]S(=O)(=O)C(F)(F)F)C(F)(F)F, for which the activity coefficient reads like this: (318.15 K) 1.21 ± 0.08; (328.15 K) 1.24 ± 0.08; (338.15 K) 1.27 ± 0.08; (348.15 K) 1.3 ± 0.08; (358.15 K) 1.32 ± 0.09; (368.15 K) 1.35 ± 0.09.
With `Cc1ccc(C)cc1` [1,4-dimethylbenzene] + CCCC[n+]1ccc(C)cc1.O=S(=O)([N-]S(=O)(=O)C(F)(F)F)C(F)(F)F, the activity coefficient is, setting by setting: (318.15 K) 1.35 ± 0.09; (328.15 K) 1.38 ± 0.09; (338.15 K) 1.42 ± 0.09; (348.15 K) 1.45 ± 0.1; (358.15 K) 1.48 ± 0.1; (368.15 K) 1.51 ± 0.1.
For `COC(C)(C)C` [2-methoxy-2-methylpropane] + CCCC[n+]1ccc(C)cc1.O=S(=O)([N-]S(=O)(=O)C(F)(F)F)C(F)(F)F, the activity coefficient is, setting by setting: (298.15 K) 1.97 ± 0.13; (308.15 K) 2 ± 0.14; (318.15 K) 2.03 ± 0.14; (328.15 K) 2.06 ± 0.14; (338.15 K) 2.08 ± 0.14; (348.15 K) 2.1 ± 0.14. Also, the activity coefficient worked out at 2.12 ± 0.14 (358.15 K) and 2.15 ± 0.15 (368.15 K).
For `C#CCCCCC` [1-heptyne] + CCCC[n+]1ccc(C)cc1.O=S(=O)([N-]S(=O)(=O)C(F)(F)F)C(F)(F)F, the activity coefficient was 3.2 ± 0.22 (298.15 K); 3.23 ± 0.22 (308.15 K); 3.24 ± 0.22 (318.15 K); 3.26 ± 0.22 (328.15 K); 3.27 ± 0.22 (338.15 K); 3.28 ± 0.22 (348.15 K). In addition, the activity coefficient reads like this: (358.15 K) 3.29 ± 0.22; (368.15 K) 3.3 ± 0.22.
As to `C#CCCCC` [1-hexyne] + CCCC[n+]1ccc(C)cc1.O=S(=O)([N-]S(=O)(=O)C(F)(F)F)C(F)(F)F, the activity coefficient came out at 2.37 ± 0.16 (298.15 K); 2.39 ± 0.16 (308.15 K); 2.42 ± 0.16 (318.15 K); 2.44 ± 0.17 (328.15 K); 2.46 ± 0.17 (338.15 K); 2.48 ± 0.17 (348.15 K). Besides, the activity coefficient (358.15 K) was 2.5 ± 0.17 and the activity coefficient (368.15 K) was 2.52 ± 0.17.
As to `CCCCCCCC` [octane] + CCCC[n+]1ccc(C)cc1.O=S(=O)([N-]S(=O)(=O)C(F)(F)F)C(F)(F)F, the activity coefficient was found to be 27.9 ± 1.9 (298.15 K); 25.8 ± 1.8 (308.15 K); 23.7 ± 1.6 (318.15 K); 22.1 ± 1.5 (328.15 K); 20.7 ± 1.4 (338.15 K); 19.3 ± 1.3 (348.15 K). Besides, the activity coefficient is, setting by setting: (358.15 K) 18.1 ± 1.2; (368.15 K) 17.2 ± 1.2.
Turning to `CCCCCC` [hexane] + CCCC[n+]1ccc(C)cc1.O=S(=O)([N-]S(=O)(=O)C(F)(F)F)C(F)(F)F, the activity coefficient reads like this: (298.15 K) 15.4 ± 1.1; (308.15 K) 14.5 ± 1; (318.15 K) 13.5 ± 0.9; (328.15 K) 12.7 ± 0.9; (338.15 K) 12 ± 0.8; (348.15 K) 11.4 ± 0.8. Further, the activity coefficient came to 10.8 ± 0.7 (358.15 K) and 10.3 ± 0.7 (368.15 K).
Consider `CCOCC` [diethyl ether] + CCCC[n+]1ccc(C)cc1.O=S(=O)([N-]S(=O)(=O)C(F)(F)F)C(F)(F)F, for which the activity coefficient (298.15 K) amounted to 2.07 ± 0.14; the activity coefficient (308.15 K) was determined as 2.08 ± 0.14; the activity coefficient (318.15 K) is 2.08 ± 0.14; the activity coefficient (328.15 K) was found to be 2.08 ± 0.14; the activity coefficient (338.15 K) worked out at 2.08 ± 0.14; the activity coefficient (348.15 K) was determined as 2.09 ± 0.14. Further, the activity coefficient reads like this: (358.15 K) 2.09 ± 0.14; (368.15 K) 2.09 ± 0.14.
Regarding `C=CCCCCC` [1-heptene] + CCCC[n+]1ccc(C)cc1.O=S(=O)([N-]S(=O)(=O)C(F)(F)F)C(F)(F)F, the activity coefficient was 9.97 ± 0.68 (298.15 K); 9.56 ± 0.65 (308.15 K); 9.17 ± 0.63 (318.15 K); 8.82 ± 0.6 (328.15 K); 8.51 ± 0.58 (338.15 K); 8.24 ± 0.56 (348.15 K). In addition, the activity coefficient by setting is: (358.15 K) 7.99 ± 0.54; (368.15 K) 7.76 ± 0.53.
As to `O` [water] + CCCC[n+]1ccc(C)cc1.O=S(=O)([N-]S(=O)(=O)C(F)(F)F)C(F)(F)F, the activity coefficient amounted to 4.86 ± 0.33 (298.15 K); 4.2 ± 0.29 (308.15 K); 3.65 ± 0.25 (318.15 K); 3.21 ± 0.22 (328.15 K); 2.85 ± 0.19 (338.15 K); 2.54 ± 0.17 (348.15 K). The activity coefficient runs as follows: (358.15 K) 2.26 ± 0.15; (368.15 K) 2.05 ± 0.14.
In the case of `C#CCCCCCC` [1-octyne] + CCCC[n+]1ccc(C)cc1.O=S(=O)([N-]S(=O)(=O)C(F)(F)F)C(F)(F)F, the activity coefficient is 4.43 ± 0.3 (298.15 K); 4.42 ± 0.3 (308.15 K); 4.4 ± 0.3 (318.15 K); 4.38 ± 0.3 (328.15 K); 4.37 ± 0.3 (338.15 K); 4.36 ± 0.3 (348.15 K). The activity coefficient is, setting by setting: (358.15 K) 4.34 ± 0.3; (368.15 K) 4.33 ± 0.29.
Turning to `Cc1ccccc1` [toluene] + CCCC[n+]1ccc(C)cc1.O=S(=O)([N-]S(=O)(=O)C(F)(F)F)C(F)(F)F, the activity coefficient is, setting by setting: (318.15 K) 0.973 ± 0.061; (328.15 K) 1 ± 0.063; (338.15 K) 1.02 ± 0.064; (348.15 K) 1.05 ± 0.066; (358.15 K) 1.07 ± 0.067; (368.15 K) 1.09 ± 0.069.
`C1CCOC1` [tetrahydrofuran] + CCCC[n+]1ccc(C)cc1.O=S(=O)([N-]S(=O)(=O)C(F)(F)F)C(F)(F)F: the activity coefficient by setting is: (298.15 K) 0.617 ± 0.043; (308.15 K) 0.63 ± 0.044; (318.15 K) 0.641 ± 0.044; (328.15 K) 0.653 ± 0.045; (338.15 K) 0.663 ± 0.045; (348.15 K) 0.673 ± 0.046. Besides, the activity coefficient reads like this: (358.15 K) 0.683 ± 0.046; (368.15 K) 0.693 ± 0.047.
As to `CCCO` [propan-1-ol] + CCCC[n+]1ccc(C)cc1.O=S(=O)([N-]S(=O)(=O)C(F)(F)F)C(F)(F)F, the activity coefficient (298.15 K) amounted to 2.28 ± 0.16; the activity coefficient (308.15 K) worked out at 2.04 ± 0.14; the activity coefficient (318.15 K) came to 1.84 ± 0.12; the activity coefficient (328.15 K) turned out to be 1.67 ± 0.11; the activity coefficient (338.15 K) was 1.53 ± 0.1; the activity coefficient (348.15 K) stood at 1.41 ± 0.09. Also, the activity coefficient runs as follows: (358.15 K) 1.3 ± 0.08; (368.15 K) 1.2 ± 0.08.
For the molecule `CCCOCCC` [dipropyl ether] + CCCC[n+]1ccc(C)cc1.O=S(=O)([N-]S(=O)(=O)C(F)(F)F)C(F)(F)F, the activity coefficient reads like this: (298.15 K) 4.91 ± 0.33; (308.15 K) 4.81 ± 0.33; (318.15 K) 4.71 ± 0.32; (328.15 K) 4.62 ± 0.31; (338.15 K) 4.54 ± 0.31; (348.15 K) 4.45 ± 0.3. For the same molecule, the activity coefficient runs as follows: (358.15 K) 4.38 ± 0.3; (368.15 K) 4.31 ± 0.29.
As to `CCCCCCCCCC` [decane] + CCCC[n+]1ccc(C)cc1.O=S(=O)([N-]S(=O)(=O)C(F)(F)F)C(F)(F)F, the activity coefficient is 54.7 ± 3.7 (298.15 K); 49.3 ± 3.4 (308.15 K); 45 ± 3.1 (318.15 K); 41.1 ± 2.8 (328.15 K); 37.6 ± 2.6 (338.15 K); 34.6 ± 2.4 (348.15 K). Further, the activity coefficient was found to be 31.9 ± 2.2 (358.15 K) and 29.7 ± 2 (368.15 K).
On to `c1ccccc1` [benzene] + CCCC[n+]1ccc(C)cc1.O=S(=O)([N-]S(=O)(=O)C(F)(F)F)C(F)(F)F, for which the activity coefficient worked out at 0.683 ± 0.046 (298.15 K); 0.702 ± 0.047 (308.15 K); 0.719 ± 0.048 (318.15 K); 0.735 ± 0.049 (328.15 K); 0.75 ± 0.049 (338.15 K); 0.767 ± 0.05 (348.15 K). In addition, the activity coefficient was found to be 0.781 ± 0.051 (358.15 K) and 0.795 ± 0.052 (368.15 K).
